In article PMC10994559 (PLOS Neglected Tropical Diseases, 2024):
Values joined by “and” are separate entries in the source; they are usually repeats but may differ in a detail not shown here. Identical values can stand only once. Like-named read-outs stand apart in the source and are kept apart here.

How the values were obtained:
[1] = test system: T. brucei brucei BSF; experiment: T. brucei BSF viability, resazurin reduction; assay type: cell-based, Trypanosoma brucei brucei; details: for EC50: ± SD (Table 2) / ± SE (S3 Table); for viability at 25 µM: read-out: viability, T.brucei (25 µM)
[2] = test system: T. brucei brucei BSF; design: method as in PMID 29425238; details: read-out: reported EC50 T. brucei; cited from earlier work
[3] = test system: L. major axenic amastigotes; experiment: L. major axenic amastigote viability, resazurin reduction; details: Leishmania major; for viability at 2.5 µM: read-out: viability, L.major amastigote(2.5 µM)
Outline: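 Axenic L. major LV561 amastigotes were grown in Grace medium with 20% FCS, pH 5.4, at 33°C and seeded at 0.5x10^5 cells/well with compounds for 72 h. Resazurin was then added for 6 h and fluorescence read at ex 550/em 590 nm; hits were retested at 2.5 μM.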

[4] = test system: E. histolytica; experiment: E. histolytica viability, ATP luminescence (Cell titer glo); assay type: cell-based, Entamoeba histolytica; details: Entamoeba histolytica; for viability at 2.5 µM: read-out: viability, E.histolytica (2.5 µM); for viability at 25 µM: read-out: viability, E.histolytica (25 µM)
Outline: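 E. histolytica strain B2-5 at 2.5x10^4 cells/ml was exposed to compound for 48 h at 37 °C under anaerobic conditions, with viability read as ATP luminescence (CellTiter-Glo). The primary screen used 25 μM in triplicate, and follow-up potency runs used 9–16-point ranges spanning 0.01–100 μM.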

[5] = test system: human hepatocyte carcinoma HepG2 cells; experiment: Cytotoxicity assay HepG2, resazurin reduction; assay type: cell-based; details: cytotoxicity, 72 h, read-out: EC50 (CT50) HepG2
Method: Mammalian cell lines (J774 and HepG2) were passaged in RPMI media supplemented with MEM, Pen-Strep (1%) and 10% FCS. Cultures were kept at 37°C incubator with 5% CO2 in filter-cap flasks.
Murine macrophage cells (J774) and human hepatocyte carcinoma HepG2 cells were seeded at 0.5x10^5 cell/well in 384 well plates in triplicate, exposed to serial dilution of compounds, dispensed using an Echo 650 acoustic dispenser (Labcyte). After incubation for 72 h at 37°C, 5% CO2, cell viability was determined using fluorescence resazurin reduction assay (λEx: 550 nm; λEm: 590 nm).

[6] = test system: T. cruzi trypomastigotes; experiment: T. cruzi viability, resazurin reduction; assay type: cell-based, Trypanosoma cruzi; details: Trypanosoma cruzi; for viability at 2.5 µM: read-out: viability, T.cruzi (2.5 µM); for viability at 25 µM: read-out: viability, T.cruzi (25 µM)
Outline: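 Y-strain trypomastigotes kept in supplemented liver infusion tryptose broth with 10% FCS, pH 7.2, at 28°C. Viability by fluorescence resazurin reduction; single-point screen at 2.5 μM, then 18-concentration dose response. Amphotericin B as control drug.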

[7] = test system: L. infantum promastigotes; experiment: L. infantum promastigote viability, resazurin reduction; assay type: cell-based, Leishmania infantum; details: Leishmania infantum, sheet LTC_compound_viability, value ± spread; for viability at 2.5 µM: read-out: viability, L. infantum promastigote (2.5 µM); for viability at 25 µM: read-out: viability, L. infantum promastigote (25 µM)
Excerpt: (§1) The infectivity of the parasites was boosted by passaging in Balb/c mice and culturing the infected lymph nodes after six weeks. L. infantum (MHOM / BR / 76 / M4192) parasite was passaged in the same media formulation with 0.5% urine.

[8] = test system: Murine macrophage cells (J774); experiment: Cytotoxicity assay J774, resazurin reduction; assay type: cell-based; details: cytotoxicity, 72 h
Outline: (§2)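 J774 and HepG2 cells were seeded at 0.5x10^5 cell/well and exposed to serially diluted compounds for 72 h at 37°C, 5% CO2. Viability was read by fluorescence resazurin reduction (λEx 550 nm, λEm 590 nm).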

[9] = Cytotoxicity assay J774, resazurin reduction; assay type: cell-based, murine; details: mouse, J774 macrophage cells; for viability at 72 h, 2.5 µM: read-out: viability, J774 (2.5 µM); for viability at 72 h, 25 µM: read-out: viability, J774 (25 µM)
Outline: as §2

[10] = test system: L. major promastigotes; experiment: L. major promastigote viability, resazurin reduction; assay type: cell-based, Leishmania major; details: Leishmania major, read-out: viability, L.major promastigote (25 µM)
Excerpt: as §1

[11] = test system: intracellular L. infantum amastigotes; experiment: Parasite rescue assay (intramacrophage, J774 infected with L. infantum); assay type: cell-based, Leishmania infantum; details: for viability at 25 µM: J774, rescue assay in J774, 25 µM, read-out: Residual viability, intracellular L. infantum amastigote (25 µM)
[12] = test system: intracellular L. infantum amastigotes; experiment: Parasite rescue assay (intramacrophage, J774 infected with L. infantum); assay type: cell-based, Leishmania infantum; details: J774, 25 µM; intracellular amastigote; read-out: viability, intracellular L. major amastigote (25 µM)
[13] = read-out: viability, L.major amastigote (25 µM)
[14] = Trypanosoma brucei, 2.5 µM, read-out: viability, T.brucei (2.5 µM)
[15] = Trypanosoma brucei, read-out: EC50 T. brucei BSF, dose response, triplicate
[16] = Leishmania infantum, J774, read-out: EC50 L. infantum rescue assay, intramacrophage (J774), 18 concentrations
[17] = read-out: EC50 L. infantum rescue assay, intramacrophage (J774), 18 concentrations

| Compound | viability at 25 µM [3, 13] | viability at 2.5 µM [3] | viability at 2.5 µM [4] | viability at 25 µM [4] | viability at 2.5 µM [1, 14] | viability at 25 µM ([1]; Trypanosoma brucei, 25 µM) | viability at 2.5 µM [6] | viability at 25 µM [6] | viability at 2.5 µM [7] | viability at 25 µM [7] | viability at 72 h, 2.5 µM [9] | viability at 72 h, 25 µM [9] | viability at 25 µM ([10]; 72 h) | viability at 25 µM ([10]; 25 µM) | melting point | viability at 25 µM [12] | also measured |
| --- | --- | --- | --- | --- | --- | --- | --- | --- | --- | --- | --- | --- | --- | --- | --- | --- | --- |
| NCc1ccc(Oc2ccc3c(c2)COB3O)cc1 [AN3057, reference compound] | – | – | – | – | – | – | – | – | – | – | – | – | – | – | – | – | Residual viability, T.brucei (2.5 µM) ([1]; BSF, 2.5 µM, 72 h): 0.3%; Residual viability, T.brucei (2.5 µM) ([1]; BSF, 2.5 µM, 72 h, listed as An3057, 2.5 µM): 0.32±0.58%; Residual viability, T.brucei (25 µM) ([1]; BSF, 25 µM, 72 h): -2.85±1.48%; EC50 ([1]; dose response, triplicate, read-out: EC50 T. brucei BSF): 0.005 ± 0.002 µM; EC50 [2]: 0.0052 µM |
| CC(C)(C)OC(=O)NC(Cc1ccccc1)C(O)CNc1ccc(OC(F)(F)F)cc1 (centres unmarked) [LTC-1023] | 18 ± 1.91% | 68.4 ± 1.28% | 48.5 ± 4.19% | 59.6 ± 14.7% | -1.06 ± 0.31% | 1.99 ± 1% | 58.51 ± 0.23% | 23.2 ± 1.67% | 67.5 ± 2.44% | 1.5 ± 0.05% | 96.7 ± 4.49% | 75.7 ± 4.65% | 88.6 ± 3.09% | 0.83 ± 1.76% | – | – | EC50 ([5]; Homo sapiens, HepG2, 72 h): 16.7 ± 1.9 µM; EC50 [5]: 31.6 µM and 16.7 µM; viability at 2.5 µM ([1]; Trypanosoma brucei, 72 h, read-out: Residual viability, T.brucei (2.5 µM), BSF, 2.5 µM, 72 h): < 10%; EC50 [1, 15]: 1.1 ± 1.7 µM; EC50 ([8]; Mus musculus, J774, 72 h): > 25 µM; EC50 [8]: > 16 µM; EC50 [11, 16]: 4.1 ± 1.8 µM; viability at 25 µM ([11]; Leishmania infantum): 4.9%; EC50 [11, 17]: 4.08 ± 1.8 µM |
| CC(C)(C)OC(=O)NC(Cc1ccccc1)C(O)CNc1cccc(C(F)(F)F)c1 (centres unmarked) [LTC-1025] | 21.2 ± 2.05% | 77 ± 1.6% | 45.9 ± 11.6% | 55.3 ± 4.32% | 78 ± 4.59% | 2.26 ± 1.07% | 63.1 ± 2.47% | 23.4 ± 2.5% | 55.3 ± 1.69% | 0.7 ± 0.03% | 75.1 ± 3.41% | 98.5 ± 8.61% | 88.3 ± 1.36% | 0.16 ± 0.69% | – | – | EC50 ([5]; Homo sapiens, HepG2, 72 h): 31.6 ± 1.7 µM; EC50 [5]: 33.8 µM and 31.6 µM; EC50 [1, 15]: 3.7 ± 1.7 µM; EC50 ([8]; Mus musculus, J774, 72 h): > 25 µM; EC50 [8]: > 16 µM; EC50 [11, 16]: 2.9 ± 2.9 µM; viability at 25 µM ([11]; Leishmania infantum): 2.8%; EC50 [11, 17]: 2.8 µM and 2.84 µM |
| CC(C)(C)c1ccc(NC[C@H](O)[C@@H](N)Cc2ccccc2)cc1 [LTC-1034, (2S,3S)-3-Amino-1-((4-(tert-butyl)phenyl)amino)-4-phenylbutan-2-ol] | 15.2 ± 1.86% | 73.9 ± 0.76% | 52 ± 6.13% | 123 ± 5.09% | 72.8 ± 4.34% | 2.34 ± 1.3% | 60.1 ± 2.2% | 30.8 ± 2.5% | 68 ± 22.2% | 3.46 ± 0.12% | 96.6 ± 5.47% | 64.1 ± 4.5% | 79.3 ± 17.2% | 6.26 ± 1.21% | 74 to 76 °C | 105 ± 5.69% | viability at 25 µM ([3]; 72 h, read-out: Residual viability, L.major amastigote (25 µM)): 15.2% |
| Cc1cccc(C)c1NC[C@H](O)[C@@H](N)Cc1ccccc1 [LTC-1041, (2S,3S)-3-Amino-1-((2,6-dimethylphenyl)amino)-4-phenylbutan-2-ol] | 73.8 ± 2.47% | – | 85.2 ± 16.3% | 128 ± 30.1% | 70.5 ± 3.15% | 2.06 ± 1.4% | 60 ± 3.23% | 57.2 ± 4.4% | 47.1 ± 4.67% | 20.3 ± 4.1% | 100 ± 2.23% | 85.1 ± 13.9% | 88 ± 2.36% | 15.5 ± 3.29% | 63 to 65 °C | 71.6 ± 22.8% | – |
| COc1ccc(NC[C@H](O)[C@@H](N)Cc2ccccc2)cc1 [LTC-1042, (2S,3S)-3-Amino-1-((4-methoxyphenyl)amino)-4-phenylbutan-2-ol] | 39 ± 23.4% | – | 106 ± 18% | 125 ± 46.5% | 77.3 ± 2.39% | 2.38 ± 1.15% | 61.9 ± 1.61% | 18.6 ± 2.9% | 81.7 ± 3.08% | 1.85 ± 0.19% | 93.9 ± 4.73% | 97.8 ± 15.5% | 86.4 ± 2.46% | 0.03 ± 0.1% | 78 to 80 °C | 67.6 ± 19.8% | – |
| Cc1ccc(NC[C@H](O)[C@@H](N)Cc2ccccc2)cc1 [LTC-1043, (2S,3S)-3-Amino-4-phenyl-1-(p-tolylamino)butan-2-ol] | 22.1 ± 2.55% | 76.2 ± 2.46% | 74.3 ± 21.6% | 97.3 ± 19.4% | 80.6 ± 2.56% | 2.22 ± 1.09% | 61.9 ± 0.89% | 31.9 ± 1.78% | 71.6 ± 5.44% | 16.9 ± 2.12% | 95.7 ± 7.77% | 93.5 ± 8.83% | 83.4 ± 5.16% | 22.1 ± 5% | 57 to 59 °C | 63.4 ± 7.61% | – |
